Source: paper PMC10503797, “Allosteric modulator potentiates β2AR agonist–promoted bronchoprotection in asthma models” (The Journal of Clinical Investigation, 2023)
Several values for one entry are separate records, joined by “and”; a condition that tells them apart may be missing. Equal entries are not always repeated.

Assays:
[1] = test system: lung slices obtained from ovalbumin-sensitized guinea pigs; assay: Ovalbumin-induced airway constriction in lung slices from ovalbumin-sensitized guinea pigs; assay type: cell-based, guinea pig; conditions: 1 µM Fenoterol, Exp1-5
Text: All curve fits were generated using the software program GraphPad Prism. Data are represented as mean ± SEM of 4–5 guinea pigs (see Table 2 for statistical analyses).
Outbred, male, specified pathogen-free Dunkin Hartley guinea pigs (Charles River Laboratory) weighing 200 to 400 g were used. The animals were housed in pairs under a 12-hour light/dark cycle in a temperature- and humidity-controlled room with food and tap water ad libitum. For studies in the guinea pig model of allergic asthma, animals were actively IgE-sensitized to ovalbumin by injecting a suspension containing 100 μg/mL ovalbumin and 100 mg/mL Al(OH)3 in saline. Each animal was injected with 1.0 mL of suspension: 0.5 mL was injected i.p. and 0.5 mL was divided over 7 s.c. sites close to lymph nodes in the neck, paws, and lumbar regions ([24]). Animals were euthanized at least 4 weeks after sensitization.
Precision-cut lung slices were prepared as described previously ([61], [62]). A 3% solution of low melting-point agarose (Gerbu Biotechnik GmbH) in ultrapure water was prepared by heating it a microwave until fully dissolved. […] After filling, the lungs were covered with ice for 30 minutes to solidify the agarose for slicing. […] Lung slices were cut at a thickness of 500 μm and washed several times with slicing buffer to remove debris and washout the isoproterenol. Slices were incubated overnight in a 60 mm dish in sterile incubation buffer: MEM composed of lung slice buffer supplemented with 0.5 mM sodium pyruvate, 1 mM glutamine (Gibco), MEM-amino acids mixture (1:50), MEM-vitamins mixture (1:100; Gibco), and penicillin-streptomycin (1:100; Gibco), pH = 7.2, at 37°C in a CO2- and humidity-controlled atmosphere.
After washing the slices in medium, individual guinea pig lung slices were mechanically maintained with a Teflon ring with an inner diameter of 7 mm and covered with 1 mL of incubation buffer. […] Image acquisition software (NIS-Elements, Nikon) was used to quantify airway luminal area. Images of the airways were acquired every 2 seconds during the whole course of the experiment, starting 2 minutes before the addition of any agent to allow for baseline measurements of the airway caliber. For each methacholine or ovalbumin concentration, the maximal airway constriction was expressed as percentage of the initial (baseline) airway luminal area and plotted against that concentration.

human lung slices = assay: Methacholine-induced airway constriction in human lung slices; assay type: cell-based; conditions: for MCh-induced airway constriction response (Figure 7): donor 1-4
Text: All curve fits were generated using the software program GraphPad Prism. Data are represented as mean ± SEM of 4 human donors (see Table 3 for statistical analyses).
Precision-cut human lung slices were purchased from AnaBios and stored in a liquid nitrogen tank. Lung tissue was obtained postmortem and consent for research was obtained by AnaBios for all donors. Characteristics of the donors of the lung tissue are shown in Supplemental Table 2. Slices were rapidly thawed following instructions from AnaBios.
After washing, individual human lung slices were mechanically maintained with a Teflon ring with an inner diameter of 7 mm and covered with 1 mL of incubation buffer. […] Image acquisition software (NIS-Elements, Nikon) was used to quantify airway luminal area. […] Airway constriction in response to each methacholine concentration was expressed as percentage of the initial airway luminal area.

guinea pig β2AR = guinea pig β2AR (Cavia porcellus, UniProt Q8K4Z4); assay: 125I-CYP radioligand competition binding, guinea pig β2AR; conditions: DMSO, listed as FEN
guinea pig β2AR, sequence (Q8K4Z4 whole entry): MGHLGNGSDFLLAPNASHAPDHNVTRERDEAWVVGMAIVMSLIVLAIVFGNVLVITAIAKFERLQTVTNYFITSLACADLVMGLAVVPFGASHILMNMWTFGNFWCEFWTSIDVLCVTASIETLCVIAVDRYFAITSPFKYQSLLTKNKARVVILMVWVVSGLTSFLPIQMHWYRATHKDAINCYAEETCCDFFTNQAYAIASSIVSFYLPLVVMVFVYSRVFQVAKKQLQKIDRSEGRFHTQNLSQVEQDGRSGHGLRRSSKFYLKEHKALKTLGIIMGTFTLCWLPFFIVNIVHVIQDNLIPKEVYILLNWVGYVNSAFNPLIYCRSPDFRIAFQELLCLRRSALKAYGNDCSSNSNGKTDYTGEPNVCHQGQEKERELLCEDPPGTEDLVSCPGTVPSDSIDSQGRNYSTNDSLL

CC(Cc1ccc(O)cc1)NCC(O)c1cc(O)cc(O)c1 (stereo not drawn) [Fenoterol, fenoterol]
OVA-induced airway constriction response (Figure 6) ([1]; [OVA] 100000 ng/ml): 91.8 and 92.1 and 100.5 and 99.1 and 87.0
OVA-induced airway constriction response (Figure 6) ([1]; [OVA] 1000000 ng/ml): 92.1 and 93.3 and 97.5 and 83.9
MCh-induced airway constriction response (Figure 7) (human lung slices; 1 µM Fenoterol, -Log [MCh] 3.5): 66.3 and 38.1 and 61.4 and 57.2
MCh-induced airway constriction response (Figure 7) (human lung slices; 1 µM Fenoterol, -Log [MCh] 4): 66.7 and 40.2 and 56.4 and 59
MCh-induced airway constriction response (Figure 7) (human lung slices; 1 µM Fenoterol, -Log [MCh] 4.5): 64.6 and 41.7 and 58.9 and 57.8
MCh-induced airway constriction response (Figure 7) (human lung slices; 1 µM Fenoterol, -Log [MCh] 5): 64.0 and 44.2 and 53.4 and 60.0
MCh-induced airway constriction response (Figure 7) (human lung slices; 1 µM Fenoterol, -Log [MCh] 5.5): 70.0 and 50.2 and 57.7 and 59.1
MCh-induced airway constriction response (Figure 7) (human lung slices; 1 µM Fenoterol, -Log [MCh] 6): 78.6 and 52.9 and 60.3 and 62.9
MCh-induced airway constriction response (Figure 7) (human lung slices; 1 µM Fenoterol, -Log [MCh] 6.5): 78.2 and 58.1 and 66.2 and 68.4
MCh-induced airway constriction response (Figure 7) (human lung slices; 1 µM Fenoterol, -Log [MCh] 7): 83.5 and 66.4 and 73.5 and 75.0
MCh-induced airway constriction response (Figure 7) (human lung slices; 1 µM Fenoterol, -Log [MCh] 7.5): 90.1 and 68.0 and 78.3 and 79.7
MCh-induced airway constriction response (Figure 7) (human lung slices; 1 µM Fenoterol, -Log [MCh] 8): 97.8 and 78.9 and 83.6 and 92.0
MCh-induced airway constriction response (Figure 7) (human lung slices; 1 µM Fenoterol, -Log [MCh] 8.5): 89.0 and 94.8 and 96.5
MCh-induced airway constriction response (Figure 7) (human lung slices; 1 µM Fenoterol, -Log [MCh] 9): 100.2 and 93.5 and 97.1 and 98.8
Airway luminal area at the highest methacholine concentration (human lung slices; 1 μM fenoterol): 55.7% ± 6.2%
MCh-induced airway constriction response (Figure 7) (human lung slices; 10 µM Fenoterol, -Log [MCh] 3.5): 79.8 and 72.5 and 79.3 and 86.4
MCh-induced airway constriction response (Figure 7) (human lung slices; 10 µM Fenoterol, -Log [MCh] 4): 80.3 and 75.3 and 80 and 86.3
MCh-induced airway constriction response (Figure 7) (human lung slices; 10 µM Fenoterol, -Log [MCh] 4.5): 83.8 and 75.6 and 80.1 and 86.9
MCh-induced airway constriction response (Figure 7) (human lung slices; 10 µM Fenoterol, -Log [MCh] 5): 91.0 and 83.4 and 80.2 and 86.4
MCh-induced airway constriction response (Figure 7) (human lung slices; 10 µM Fenoterol, -Log [MCh] 5.5): 98.1 and 86.0 and 82.0 and 87.9
MCh-induced airway constriction response (Figure 7) (human lung slices; 10 µM Fenoterol, -Log [MCh] 6): 99.0 and 86.3 and 86.9 and 91.9
MCh-induced airway constriction response (Figure 7) (human lung slices; 10 µM Fenoterol, -Log [MCh] 6.5): 99.5 and 90.2 and 90.4 and 97.1
MCh-induced airway constriction response (Figure 7) (human lung slices; 10 µM Fenoterol, -Log [MCh] 7): 99.7 and 93.0 and 91.3 and 96.6
MCh-induced airway constriction response (Figure 7) (human lung slices; 10 µM Fenoterol, -Log [MCh] 7.5): 94.8 and 96.0 and 99.4
MCh-induced airway constriction response (Figure 7) (human lung slices; 10 µM Fenoterol, -Log [MCh] 8): 101.4 and 95.9 and 99.4 and 100.7
MCh-induced airway constriction response (Figure 7) (human lung slices; 10 µM Fenoterol, -Log [MCh] 8.5): 103.2 and 98.6 and 100.6 and 95.6
MCh-induced airway constriction response (Figure 7) (human lung slices; 10 µM Fenoterol, -Log [MCh] 9): 100.3 and 99.4 and 101.1 and 99.5
Airway luminal area at the highest methacholine concentration (human lung slices; 10 μM fenoterol): 79.5% ± 2.8%
EC50 (human lung slices; Homo sapiens, read-out: MCh pD2, 10 μM Fenoterol (converted)): 1.7 µM
125I-CYP binding, FEN competition curve (Figure 4D) (guinea pig β2AR; Log [FEN] (M) -4.49485): 3.006 and 3.081 and 4.379 and 2.482
125I-CYP binding, FEN competition curve (Figure 4D) (guinea pig β2AR; Log [FEN] (M) -5.09691): 10.5632 and 11.6008 and 14.5744 and 11.1845
125I-CYP binding, FEN competition curve (Figure 4D) (guinea pig β2AR; Log [FEN] (M) -5.69897): 27.5943 and 31.6003 and 36.8549 and 31.4566
125I-CYP binding, FEN competition curve (Figure 4D) (guinea pig β2AR; Log [FEN] (M) -6.30103): 58.2352 and 64.6742 and 67.2527 and 62.2696
125I-CYP binding, FEN competition curve (Figure 4D) (guinea pig β2AR; Log [FEN] (M) -6.90309): 83.5341 and 84.3533 and 88.9652 and 87.8637
125I-CYP binding, FEN competition curve (Figure 4D) (guinea pig β2AR; Log [FEN] (M) -7.50515): 93.701 and 97.0547 and 97.6505 and 97.0492
125I-CYP binding, FEN competition curve (Figure 4D) (guinea pig β2AR; Log [FEN] (M) -8.10721): 100.713 and 99.5295 and 100.092
125I-CYP binding, FEN competition curve (Figure 4D) (guinea pig β2AR; Log [FEN] (M) -8.70927): 98.7203 and 100.799 and 100.482
125I-CYP binding, FEN competition curve (Figure 4D) (guinea pig β2AR; Log [FEN] (M) -9.31133): 101.392 and 100.992 and 100.128
125I-CYP binding, FEN competition curve (Figure 4D) (guinea pig β2AR; Log [FEN] (M) -9.91339): 99.9817 and 101.061 and 100.058 and 101.342
